This note sets out measurements from ChEMBL document CHEMBL1159101, “Structural diversity of nucleoside phosphonic acids as a key factor in the discovery of potent inhibitors of rat T-cell lymphoma thymidine phosphorylase” (Bioorg Med Chem Lett, 2010).

pIC50: −log10 of the molar value.

The target of one experiment is T1, Thymidine phosphorylase (Rattus norvegicus) (UniProt Q5FVR2).
T1 sequence (whole entry): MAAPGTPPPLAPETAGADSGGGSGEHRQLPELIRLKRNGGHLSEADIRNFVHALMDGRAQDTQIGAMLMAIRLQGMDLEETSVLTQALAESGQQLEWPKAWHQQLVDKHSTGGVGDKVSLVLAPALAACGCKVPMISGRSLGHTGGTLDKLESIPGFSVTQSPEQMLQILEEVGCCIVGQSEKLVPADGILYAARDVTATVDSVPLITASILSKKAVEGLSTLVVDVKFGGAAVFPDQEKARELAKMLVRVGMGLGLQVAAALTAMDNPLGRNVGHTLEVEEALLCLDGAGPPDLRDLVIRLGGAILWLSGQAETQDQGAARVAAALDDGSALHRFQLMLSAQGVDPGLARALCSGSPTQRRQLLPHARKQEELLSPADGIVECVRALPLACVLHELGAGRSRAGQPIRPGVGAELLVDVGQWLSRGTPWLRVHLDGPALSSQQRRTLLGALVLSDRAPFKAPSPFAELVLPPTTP
Kind of experiment: Inhibition of thymidine phosphorylase in T cell lymphomas of Sprague-Dawley rat assessed as residual activity at 10 uM in presence of 100 uM thymidine and 200 uM phosphate.
With `Cc1cn([C@H]2C[C@H]3O[C@](c4ccccc4)(P(=O)(O)O)OC[C@H]3O2)c(=O)[nH]c1=O`, the Activity worked out at 4%.

Consider `Cc1cn([C@@H]2CN(C(=O)P(=O)(O)O)C[C@H]2O)c(=O)[nH]c1=O`, for which the Activity is 4%.

In the case of `O=c1ccn([C@H]2C[C@@H](CO)N(CP(=O)(O)O)C2)c(=O)[nH]1`, the Activity stood at 17%.

Regarding `Cc1cn(CCOC2(P(=O)(O)O)CCCC2)c(=O)[nH]c1=O`, the Activity was 14%.

Regarding `Cc1cn(C2CCN(C(=O)P(=O)(O)O)C2)c(=O)[nH]c1=O` (racemic), the Activity was determined as 3%.

Take `Cc1cn([C@H]2C[C@H](CO)N(C(=O)P(=O)(O)O)C2)c(=O)[nH]c1=O`: the Activity is 2%.

In the case of `Cc1cn(C2CCN(CP(=O)(O)O)C2)c(=O)[nH]c1=O` (racemic), the Activity was 29%.

As to `Cc1cn([C@H]2C[C@H]3O[C@@](CBr)(P(=O)(O)O)OC[C@H]3O2)c(=O)[nH]c1=O`, the Activity turned out to be 26%.

In the case of `Cc1cn([C@@H]2CN(C(=O)P(=O)(O)O)C[C@@H]2O)c(=O)[nH]c1=O`, the Activity was found to be 0%.

On to `Cc1cn(CCOC(c2ccccc2)P(=O)(O)O)c(=O)[nH]c1=O` (stereo not given), for which the Activity stood at 9%.

For `Cc1cn(C2CCN(C(=S)P(=O)(O)O)C2)c(=O)[nH]c1=O` (racemic), the Activity came out at 9%.

For `C=CCOC(Cn1cc(C)c(=O)[nH]c1=O)OCP(=O)(O)O` (stereo not given), the Activity amounted to 10%.

Turning to `Cc1cn(CCOC2(P(=O)(O)O)CCCCC2)c(=O)[nH]c1=O`, the Activity is 21%.

`Cc1cn(CC(OCP(=O)(O)O)Oc2ccccc2)c(=O)[nH]c1=O` (stereo not given): the Activity turned out to be 1%.

In the case of `Cc1cn([C@@H]2CN(C(=S)P(=O)(O)O)C[C@@H]2O)c(=O)[nH]c1=O`, the Activity was found to be 0%.

Turning to `Cc1cn([C@H]2C[C@H]3O[C@@](c4ccccc4)(P(=O)(O)O)OC[C@H]3O2)c(=O)[nH]c1=O`, the Activity is 47%.

For `Cc1cn([C@H]2C[C@H](CO)N(CP(=O)(O)O)C2)c(=O)[nH]c1=O`, the Activity is 0%.

In the case of `Cc1cn(C2CCN(C(=O)CP(=O)(O)O)C2)c(=O)[nH]c1=O` (racemic), the Activity was found to be 59%.

For the compound `Cc1cn([C@H]2C[C@H]3O[C@](CBr)(P(=O)(O)O)OC[C@H]3O2)c(=O)[nH]c1=O`, the Activity stood at 20%.

As for `Cc1cn([C@@H]2CN(CP(=O)(O)O)C[C@@H]2O)c(=O)[nH]c1=O`, the Activity is 1%.

A further experiment addresses T2, Thymidine phosphorylase (Rattus norvegicus, UniProt Q5FVR2).
T2 sequence (Q5FVR2 whole entry): T1 sequence (whole entry)
Briefly: Inhibition of thymidine phosphorylase in T cell lymphomas of Sprague-Dawley rat in presence of 100 uM thymidine and 200 uM phosphate. Type of experiment: cell-based.
Regarding `Cc1cn([C@@H]2CN(C(=O)P(=O)(O)O)C[C@H]2O)c(=O)[nH]c1=O`, the pIC50 is 6.66.

For `Cc1cn(C2CCN(C(=O)P(=O)(O)O)C2)c(=O)[nH]c1=O` (racemic), the negative-log IC50 (pIC50) was 6.46.

With `Cc1cn([C@H]2C[C@H](CO)N(C(=O)P(=O)(O)O)C2)c(=O)[nH]c1=O`, the pIC50 is 7.35.

Regarding `Cc1cn([C@@H]2CN(C(=O)P(=O)(O)O)C[C@@H]2O)c(=O)[nH]c1=O`, the negative logarithm of the IC50 (pIC50) is 7.96.

On to `Cc1cn(C2CCN(C(=S)P(=O)(O)O)C2)c(=O)[nH]c1=O` (racemic), for which the negative logarithm of the IC50 (pIC50) was 6.72.

Regarding `C=CCOC(Cn1cc(C)c(=O)[nH]c1=O)OCP(=O)(O)O` (stereo not given), the pIC50 is 6.52.

On to `Cc1cn(CC(OCP(=O)(O)O)Oc2ccccc2)c(=O)[nH]c1=O` (stereo not given), for which the pIC50 is 6.12.

Consider `Cc1cn([C@@H]2CN(C(=S)P(=O)(O)O)C[C@@H]2O)c(=O)[nH]c1=O`, for which the pIC50 is 7.82.

Turning to `Cc1cn([C@H]2C[C@H](CO)N(CP(=O)(O)O)C2)c(=O)[nH]c1=O`, the pIC50 was 6.60.

Regarding `Cc1cn([C@@H]2CN(CP(=O)(O)O)C[C@@H]2O)c(=O)[nH]c1=O`, the negative logarithm of the IC50 (pIC50) is 7.35.
